ChEMBL document CHEMBL5247652, “Discovery of Novel Substrate-Competitive Lysine Methyltransferase G9a Inhibitors as Anticancer Agents” (J Med Chem, 2023)
≈ marks a conversion by molar mass, not a printed value. Calls of active or inactive are those of the source. No cut-off for these calls is given here.

Columns and labels:
[1] = Microsomal stability in mouse liver microsomes assessed as parent compound remaining after 30 mins in presence of NADPH by LC -MS/MS analysis; assay type: ADME, Microsome; details: read-out: Stability
[2] = Permeability of compound by PAMPA assay; assay type: ADME; details: for Papp: read-out: permeability
[3] = Aqueous solubility of compound at pH 7.4 measured for 1 hr by UV-plate reader analysis; assay type: physicochemical; details: buffer
MOLT-4 [4] = test: Antiproliferative activity against human MOLT-4 cells assessed as inhibition of cell growth with replenishment of medium with compound on day 4 and 7 and measured after 12 days by ATPlite assay; assay type: functional; details: MOLT-4, 288 h, time 12 day
MOLT-4 [5] = test: Antiproliferative activity against human MOLT-4 cells assessed as inhibition of cell growth with replenishment of medium with compound on day 4 and 7 by ATPlite assay; assay type: functional
[6] = Microsomal stability in human liver microsomes assessed as parent compound remaining after 30 mins in presence of NADPH by LC -MS/MS analysis; assay type: ADME, Microsome; details: read-out: Stability
[7] = biological target: T1, Histone-lysine N-methyltransferase EHMT1 (Homo sapiens, UniProt Q9H9B1); test: Inhibition of GLP (unknown origin)
T1 sequence (Q9H9B1 whole entry): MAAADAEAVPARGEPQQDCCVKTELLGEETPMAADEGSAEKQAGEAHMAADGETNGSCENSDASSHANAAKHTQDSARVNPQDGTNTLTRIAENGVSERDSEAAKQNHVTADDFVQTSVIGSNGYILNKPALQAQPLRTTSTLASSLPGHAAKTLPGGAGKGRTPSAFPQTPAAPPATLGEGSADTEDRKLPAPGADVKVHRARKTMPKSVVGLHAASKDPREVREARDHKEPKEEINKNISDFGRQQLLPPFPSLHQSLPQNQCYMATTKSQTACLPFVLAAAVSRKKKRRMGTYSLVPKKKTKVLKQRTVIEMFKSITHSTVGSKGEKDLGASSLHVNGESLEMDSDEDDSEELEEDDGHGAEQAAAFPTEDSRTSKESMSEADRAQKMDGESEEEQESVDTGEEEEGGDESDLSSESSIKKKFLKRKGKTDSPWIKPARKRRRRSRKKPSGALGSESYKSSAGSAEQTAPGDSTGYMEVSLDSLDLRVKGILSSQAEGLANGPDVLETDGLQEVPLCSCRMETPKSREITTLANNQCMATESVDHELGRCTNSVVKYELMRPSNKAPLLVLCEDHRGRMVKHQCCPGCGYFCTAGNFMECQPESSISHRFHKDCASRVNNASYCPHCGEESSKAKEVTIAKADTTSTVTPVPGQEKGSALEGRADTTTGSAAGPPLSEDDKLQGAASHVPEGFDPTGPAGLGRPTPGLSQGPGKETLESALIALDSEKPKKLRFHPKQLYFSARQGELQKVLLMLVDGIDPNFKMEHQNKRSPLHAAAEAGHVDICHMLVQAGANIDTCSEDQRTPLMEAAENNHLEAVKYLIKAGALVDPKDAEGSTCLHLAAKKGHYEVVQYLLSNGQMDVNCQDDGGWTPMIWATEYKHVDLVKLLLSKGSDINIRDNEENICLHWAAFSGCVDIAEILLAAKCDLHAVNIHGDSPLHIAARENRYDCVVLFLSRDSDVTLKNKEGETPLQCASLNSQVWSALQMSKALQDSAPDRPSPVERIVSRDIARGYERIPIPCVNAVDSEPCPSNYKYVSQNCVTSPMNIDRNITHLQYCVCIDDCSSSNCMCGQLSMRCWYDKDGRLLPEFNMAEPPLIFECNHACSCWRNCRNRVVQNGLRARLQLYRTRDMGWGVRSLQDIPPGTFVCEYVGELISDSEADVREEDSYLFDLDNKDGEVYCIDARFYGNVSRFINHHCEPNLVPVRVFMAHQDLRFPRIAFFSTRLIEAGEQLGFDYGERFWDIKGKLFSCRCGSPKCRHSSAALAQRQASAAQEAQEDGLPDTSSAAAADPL

[8] = biological target: T2, Histone-lysine N-methyltransferase EHMT2 (Homo sapiens, UniProt Q96KQ7); test: Inhibition of G9a (unknown origin)
T2 sequence (Q96KQ7 whole entry): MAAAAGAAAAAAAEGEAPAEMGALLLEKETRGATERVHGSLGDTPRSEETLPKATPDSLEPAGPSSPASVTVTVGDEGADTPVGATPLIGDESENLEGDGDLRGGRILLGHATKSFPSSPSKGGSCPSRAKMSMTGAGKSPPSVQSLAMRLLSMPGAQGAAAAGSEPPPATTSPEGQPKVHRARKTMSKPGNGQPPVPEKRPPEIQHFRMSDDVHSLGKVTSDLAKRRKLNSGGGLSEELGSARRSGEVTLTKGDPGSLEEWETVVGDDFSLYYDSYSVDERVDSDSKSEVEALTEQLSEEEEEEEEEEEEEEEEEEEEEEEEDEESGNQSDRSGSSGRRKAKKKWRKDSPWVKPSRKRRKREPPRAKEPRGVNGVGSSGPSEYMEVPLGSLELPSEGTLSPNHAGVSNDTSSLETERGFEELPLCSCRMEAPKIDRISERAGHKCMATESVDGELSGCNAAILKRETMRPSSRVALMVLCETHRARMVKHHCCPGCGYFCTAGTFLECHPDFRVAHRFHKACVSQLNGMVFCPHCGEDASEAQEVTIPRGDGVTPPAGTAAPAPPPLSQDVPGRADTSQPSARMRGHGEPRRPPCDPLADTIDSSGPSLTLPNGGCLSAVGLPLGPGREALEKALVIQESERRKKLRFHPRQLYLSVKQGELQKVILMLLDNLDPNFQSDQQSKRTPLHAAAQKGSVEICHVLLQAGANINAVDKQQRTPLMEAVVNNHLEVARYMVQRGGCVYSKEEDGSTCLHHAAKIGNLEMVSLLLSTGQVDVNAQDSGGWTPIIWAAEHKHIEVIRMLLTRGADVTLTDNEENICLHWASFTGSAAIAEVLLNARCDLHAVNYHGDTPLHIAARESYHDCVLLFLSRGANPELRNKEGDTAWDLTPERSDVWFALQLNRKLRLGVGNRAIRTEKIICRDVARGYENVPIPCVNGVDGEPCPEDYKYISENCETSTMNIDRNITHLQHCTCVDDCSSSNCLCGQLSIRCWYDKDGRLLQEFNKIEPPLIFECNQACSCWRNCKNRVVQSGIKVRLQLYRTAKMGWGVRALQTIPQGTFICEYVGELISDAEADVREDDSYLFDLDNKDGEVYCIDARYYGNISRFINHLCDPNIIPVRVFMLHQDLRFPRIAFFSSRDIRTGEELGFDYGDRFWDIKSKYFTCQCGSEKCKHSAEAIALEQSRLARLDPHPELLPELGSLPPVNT

[9] = biological target: T2, Histone-lysine N-methyltransferase EHMT2; test: Inhibition of N-terminal GST-tagged human recombinant G9a (785 to 1210 residues) expressed in baculovirus infected Sf9 cells incubated for 1 hr by AlphaLISA analysis
MOLT-4 [10] = test: Downregulation of H3K9 dimethylation in human MOLT-4 cells at 0.1 uM by Western blot analysis; assay type: functional, cell-based
[11] = AUC (0 to infinity) in ICR mouse at 25 mg/kg, ip; assay type: ADME, organism-based; design: dose 25 mg/kg, route ip; details: in vivo
[12] = Cmax in ICR mouse at 25 mg/kg, ip; assay type: ADME, organism-based; design: dose 25 mg/kg, route ip; details: in vivo
MOLT-4 [13] = test: Downregulation of H3K9 dimethylation in human MOLT-4 cells at 1 uM by Western blot analysis; assay type: functional, cell-based
[14] = Tmax in ICR mouse at 25 mg/kg, ip; assay type: ADME, organism-based; details: in vivo
[15] = Half life in ICR mouse at 25 mg/kg, ip; assay type: ADME, organism-based; details: in vivo
[16] = Drug concentration in C57BL/6 mouse plasma at 20 mg/kg, ip measured after 4 hrs; assay type: ADME, organism-based
Mus musculus [17] = test: In vivo inhibition of G9a in C57BL/6 mouse liver assessed as reduction in H3K9me2 level at 20 to 50 mg/kg, ip measured after 5 days by Westernblot analysis; assay type: functional, organism-based; details: dose 20-50 mg/kg, time 5.0 day
[18] = Toxicity in C57BL/6 mouse assessed as body weight loss at 20 to 50 mg/kg, ip measured after 48 weeks; assay type: organism-based; details: in vivo, 8064 h, dose 20-50 mg/kg
[19] = Drug concentration in C57BL/6 mouse liver at 50 mg/kg, ip measured after 4 hrs; assay type: ADME, organism-based; details: read-out: Ct
HCC = test: Antitumor activity against DEN-induced […] HCC tumor in C57BL/6 mouse at 20 to 50 mg/kg, ip measured after 48 weeks; assay type: functional, organism-based; details: dose 20-50 mg/kg
[20] = Drug concentration in C57BL/6 mouse plasma at 50 mg/kg, ip measured after 4 hrs; assay type: ADME, organism-based
Mus musculus [21] = test: In vivo inhibition of G9a in C57BL/6 mouse liver assessed as H3 histone methylation at 20 to 50 mg/kg, ip measured after 5 days by Westernblot analysis; assay type: functional, organism-based; details: dose 20-50 mg/kg, time 5.0 day
[22] = Drug concentration in C57BL/6 mouse liver at 20 mg/kg, ip measured after 4 hrs; assay type: ADME, organism-based; details: read-out: Ct

SMILES: COc1cc2c(NC3CCN(C(C)C)CC3)nc(C3CCCCC3)nc2cc1OCCCN1CCCC1
- remaining at 0.5 h [1]: 67%
- permeability [2]: 1.89 10^-6 cm/s
- solubility at 1 h [3]: > 200 µM
- GI50 (MOLT-4 [4]): 188 nM
- GI50 (MOLT-4 [5]): 188 nM
- remaining at 0.5 h [6]: 89.7%

SMILES: COc1cc2c(cc1C1=CCN(C)CCC1)N=C(N)C21CCC1
- IC50 [7]: 75.7 nM
- IC50 [8]: 12.6 nM

SMILES: Cc1c(C(=O)N[C@@H](CCC2CC2)C(=O)Nc2ccc(C#N)cc2)[nH]c2c1C(=O)CC(C)(C)C2
- remaining at 0.5 h [1]: 19.3%
- Papp [2]: 3.12 ×10⁻⁶ cm/s
- IC50 [9]: 27 nM
- IC50 ([9]; sf9): 27 nM
- Activity (MOLT-4 [10]): Active
- solubility at 1 h [3]: 13.6 µM (≈ 6.07 µg/mL)
- GI50 (MOLT-4 [4]): 21.3 nM
- GI50 (MOLT-4 [5]): 21.3 nM
- remaining at 0.5 h [6]: 55.5%

SMILES: Cc1c(C(=O)N[C@H](CCC2CC2)C(=O)Nc2ccccc2)[nH]c2c1C(=O)CC(C)(C)C2
- AUC(0-inf) [11]: 10.3 µM·h
- IC50 [9]: 2100 nM
- Cmax [12]: 4.14 µM
- Activity (MOLT-4 [13]): inactive
- GI50 (MOLT-4 [4]): 1790 nM
- Tmax [14]: 4 h
- half-life [15]: 0.58 h

SMILES: CCc1c(C(=O)N[C@@H](CCC2CC2)C(=O)Nc2ccc(C#N)cc2)[nH]c2c1C(=O)CC(C)(C)C2
- remaining at 0.5 h [1]: 40.5%
- IC50 [9]: 50 nM
- solubility at 1 h [3]: 4 µM (≈ 1.84 µg/mL)
- GI50 (MOLT-4 [5]): 220 nM
- remaining at 0.5 h [6]: 51.9%

SMILES: Cc1c(C(=O)N[C@H](CCC2CC2)C(=O)Nc2ccc(C#N)cc2)[nH]c2c1C(=O)CC(C)(C)C2
- concentration at 4 h [16]: 9.6 µM
- Activity (Mus musculus [17]): Active
- AUC(0-inf) [11]: 418 µM·h
- IC50 [7]: 53 nM
- Activity [18]: Non-Toxic
- concentration at 4 h [19]: 46.9 µM
- Cmax [12]: 42.4 µM
- Activity (MOLT-4 [13]): inactive
- Activity (HCC): Active
- GI50 (MOLT-4 [4]): 2370 nM
- IC50 [8]: 27 nM
- concentration at 4 h [20]: 18.9 µM
- Tmax [14]: 4 h
- inhibition (Mus musculus [21]): inactive
- concentration at 4 h [22]: 23.5 µM
- half-life [15]: 1.4 h

SMILES: Cc1c(C(=O)N[C@@H](CCC2CC2)C(=O)Nc2ccccc2)[nH]c2c1C(=O)CC(C)(C)C2
- remaining at 0.5 h [1]: 7.1%
- Papp [2]: 6.35 ×10⁻⁶ cm/s
- IC50 [9]: 39.6 nM
- Activity (MOLT-4 [10]): Active
- solubility at 1 h [3]: 32.4 µM (≈ 13.7 µg/mL)
- GI50 (MOLT-4 [5]): 61.5 nM
- remaining at 0.5 h [6]: 36.5%

SMILES: Cc1ccc(NC(=O)[C@@H](CCC2CC2)NC(=O)c2[nH]c3c(c2C)C(=O)CC(C)(C)C3)cn1
- remaining at 0.5 h [1]: 38.1%
- Papp [2]: 9.64 ×10⁻⁶ cm/s
- IC50 [9]: 50 nM
- solubility at 1 h [3]: 50.8 µM (≈ 22.2 µg/mL)
- GI50 (MOLT-4 [5]): 176 nM
- remaining at 0.5 h [6]: 40.2%

SMILES: CC(C)c1c(C(=O)N[C@@H](CCC2CC2)C(=O)Nc2ccc(C#N)cc2)[nH]c2c1C(=O)CC(C)(C)C2
- remaining at 0.5 h [1]: 70.8%
- IC50 [9]: 55 nM
- solubility at 1 h [3]: 3.7 µM (≈ 1.76 µg/mL)
- GI50 (MOLT-4 [5]): 91.3 nM
- remaining at 0.5 h [6]: 1.8%

SMILES: Cc1c(C(=O)NC(CCC2CC2)C(=O)Nc2ccc(C#N)cc2)[nH]c2c1C(=O)CC(C)(C)C2 (racemic)
- IC50 [9]: 66.7 nM
- GI50 (MOLT-4 [4]): 278 nM

SMILES: Cc1c(C(=O)NC(CCC2CC2)C(=O)Nc2ccccc2)[nH]c2c1C(=O)CC(C)(C)C2 (racemic)
- GI50 (MOLT-4 [4]): 1790 nM
